The values below come from ChEMBL document CHEMBL1201862, “PubChem BioAssay data set” (2004).

Test [1] is described as follows: HepG2 cell cytotoxicity, dose response, cytotoxicity control, cherry-picked samples (AID 1159577). The class given is functional, cell-based.
Test [2] is described as follows: P. falciparum Dd2 growth inhibitors, dose response, SYBR Green, cherry-picked samples (AID 1159567). Type of test: functional, cell-based.
A short description of test [3]: miR-122 activators in hepatoma reporter cells, dose response, cell-based, Huh7 psiCHECK-miR122, Renilla luciferase, cherry-picked (AID 651956).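 Also: huh7 hepatoma cells stably carrying a psiCHECK-2 miR-122 sensor plasmid; renilla luciferase signal reporting endogenous miR-122 activity after 48 h compound exposure.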 Type of test: functional.
A short description of test [4]: HEK293T cytotoxicity, dose response, cytotoxicity control for miR-122 modulator project, cell-based, activator set, cherry-pick (AID 720690).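 Also: HEK293T human cells scored for general mammalian cytotoxicity.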 The class given is functional.
Test [5] in a line: inhibitors of PGC1a acetylation in cells, dose response, cell-based, cherry-picked samples (AID 720514).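 Also: potency may reflect raised or lowered acetylation signal.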 The class given is functional.
The target of test [6] is Metabotropic glutamate receptor 3 (Rattus norvegicus, UniProt P31422). The test is described as follows: mGlu3 NAM potency via calcium readout, dose response, mGlu3 NAM project, TREx293 cells, Galpha15, calcium flux (AID 651840). Type of test: functional.
Metabotropic glutamate receptor 3, sequence (P31422 whole entry): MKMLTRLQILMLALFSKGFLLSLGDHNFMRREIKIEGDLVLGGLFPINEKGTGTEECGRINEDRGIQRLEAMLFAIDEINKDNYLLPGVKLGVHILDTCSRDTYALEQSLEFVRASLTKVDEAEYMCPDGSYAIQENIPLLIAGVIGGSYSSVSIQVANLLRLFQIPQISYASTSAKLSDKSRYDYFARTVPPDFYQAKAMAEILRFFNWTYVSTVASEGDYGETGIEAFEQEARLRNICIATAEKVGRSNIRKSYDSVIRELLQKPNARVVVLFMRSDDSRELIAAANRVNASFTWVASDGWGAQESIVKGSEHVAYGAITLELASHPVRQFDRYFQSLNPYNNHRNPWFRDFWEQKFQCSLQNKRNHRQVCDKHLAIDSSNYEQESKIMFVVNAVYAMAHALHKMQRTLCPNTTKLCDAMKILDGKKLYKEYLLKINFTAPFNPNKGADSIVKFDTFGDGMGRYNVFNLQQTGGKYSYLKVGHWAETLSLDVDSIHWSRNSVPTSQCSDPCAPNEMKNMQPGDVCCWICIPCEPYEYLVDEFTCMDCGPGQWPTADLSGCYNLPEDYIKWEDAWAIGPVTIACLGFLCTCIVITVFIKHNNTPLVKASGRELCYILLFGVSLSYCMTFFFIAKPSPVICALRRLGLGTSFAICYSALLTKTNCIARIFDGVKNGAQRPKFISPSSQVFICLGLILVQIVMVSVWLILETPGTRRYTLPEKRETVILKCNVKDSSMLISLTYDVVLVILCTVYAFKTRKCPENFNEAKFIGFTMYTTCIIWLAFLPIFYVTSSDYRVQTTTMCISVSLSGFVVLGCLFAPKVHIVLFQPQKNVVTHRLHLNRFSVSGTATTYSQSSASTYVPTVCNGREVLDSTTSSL
Test [7] is described as follows: T. cruzi growth inhibition in host cells, dose response, cell-based, plate reader, dry powder, set 2 (AID 652275). Type of test: functional.
The nature of test [8]: T. cruzi intracellular amastigote growth inhibition, dose response, imaging, CA-I/72 strain, bovine embryo skeletal muscle, dry powder (AID 651885). Type of test: functional, cell-based.
A short description of test [9]: cells. Type of test: functional, cell-based. The settings on record: HEK-CNG.
For test [10], the target named is Galanin receptor type 3 (Homo sapiens, UniProt O60755). The test is described as follows: Fluorescence-based cell-based primary high throughput dose response assay to identify antagonists of the Galanin Receptor 3 (GalR3). The class given is functional.
Galanin receptor type 3, sequence (O60755 whole entry): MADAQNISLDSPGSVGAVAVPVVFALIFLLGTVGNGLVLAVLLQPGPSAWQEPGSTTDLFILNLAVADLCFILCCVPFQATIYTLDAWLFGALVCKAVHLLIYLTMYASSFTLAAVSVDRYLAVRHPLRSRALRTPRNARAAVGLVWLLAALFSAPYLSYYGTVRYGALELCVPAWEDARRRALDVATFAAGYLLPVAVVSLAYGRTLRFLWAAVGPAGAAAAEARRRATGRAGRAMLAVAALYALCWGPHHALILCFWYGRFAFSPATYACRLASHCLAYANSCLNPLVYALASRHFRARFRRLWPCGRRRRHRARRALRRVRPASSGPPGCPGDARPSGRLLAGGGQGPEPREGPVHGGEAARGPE
Test [11] is described as follows: PAX2 cell-based inhibition, dose response, selectivity assay for PAX8 inhibitor project, plate reader, dry powder samples (AID 743048).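 Also: HEK293 cells carrying a WT1 promoter luciferase reporter driven by expressed Pax2; potency is for inhibition of Pax2 driven reporter signal.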 The class given is functional.
Test [12] is described as follows: PAX5 activity inhibitors, dose response, selectivity assay for PAX8 inhibitor project, cell-based, plate reader, dry powder samples (AID 743047).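 Also: HEK293 cells carrying a Pax5 driven CD19 promoter luciferase reporter; potency of inhibitors that lower reporter luminescence.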 The class given is functional.
Test [13] can be described thus: cytotoxicity in OV-90 ovarian cancer cells, dose response, PAX8 inhibitor project, cell-based, plate reader, dry powder, SA8 (AID 743149). The class given is functional.
The target in test [14] is Paired box protein Pax-8 (Homo sapiens, UniProt Q06710). The test is described as follows: inhibitors of PAX8-driven TPO luciferase reporter, dose response, RMG-I cells, cherry-pick (AID 687027).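 Also: luciferase reporter driven by Pax8 target thyroperoxidase promoter measured by SteadyGlo luminescence.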 The class given is functional, cell-based. Background: A reporter such as luciferase makes a cellular process visible.
Paired box protein Pax-8, sequence (Q06710 whole entry): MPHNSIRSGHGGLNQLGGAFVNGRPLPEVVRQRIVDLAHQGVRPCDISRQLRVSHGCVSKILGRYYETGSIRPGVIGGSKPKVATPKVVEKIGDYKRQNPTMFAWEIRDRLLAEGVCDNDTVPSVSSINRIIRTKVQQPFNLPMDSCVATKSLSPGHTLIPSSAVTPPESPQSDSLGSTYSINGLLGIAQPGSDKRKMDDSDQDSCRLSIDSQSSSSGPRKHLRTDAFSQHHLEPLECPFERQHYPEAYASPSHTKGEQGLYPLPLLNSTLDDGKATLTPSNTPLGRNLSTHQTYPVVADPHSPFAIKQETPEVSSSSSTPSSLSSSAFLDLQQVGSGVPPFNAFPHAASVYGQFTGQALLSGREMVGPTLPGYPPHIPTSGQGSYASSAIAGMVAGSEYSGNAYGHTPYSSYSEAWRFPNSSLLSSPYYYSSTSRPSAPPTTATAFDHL
The target in test [15] is Kappa-type opioid receptor (Homo sapiens, UniProt P41145). The test is described as follows: OPRK1 antagonists, late-stage follow-up, cell-based, fluorescence, dose response (AID 652032). Type of test: functional.
Kappa-type opioid receptor, sequence (P41145 whole entry): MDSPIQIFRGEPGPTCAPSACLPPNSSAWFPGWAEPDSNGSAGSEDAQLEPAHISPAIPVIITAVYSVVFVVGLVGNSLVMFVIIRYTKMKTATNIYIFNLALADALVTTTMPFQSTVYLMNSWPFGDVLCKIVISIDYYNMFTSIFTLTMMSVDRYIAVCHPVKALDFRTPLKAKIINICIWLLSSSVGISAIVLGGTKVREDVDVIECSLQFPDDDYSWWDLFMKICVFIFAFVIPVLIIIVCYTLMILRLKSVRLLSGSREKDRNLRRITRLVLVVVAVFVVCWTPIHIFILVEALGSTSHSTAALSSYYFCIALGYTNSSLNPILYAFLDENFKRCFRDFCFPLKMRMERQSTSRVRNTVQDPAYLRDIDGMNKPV

The structures appear in SMILES notation. The source made the active and inactive calls.
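For EC50 in this document: target is galanin receptor GalR3 read with a cAMP biosensor in HEK293 cells.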

Broadly, the AC50 is the concentration at which the activity in the assay is half-maximal. Regarding `O=C(Nc1ccc(F)cc1)N1CCCCN2[C@H](CO)[C@H](c3ccc(C#Cc4ccccc4)cc3)[C@H]2C1`, the AC50 was 9.51 µM (active) in [1]; 1.2 µM (active) in [2]; 7.46 µM (active) in test [3]; 7.78 µM (active) in test [4]; 17.2 µM (active) in test [5].
Broadly, the IC50 is the concentration needed to halve the response being measured. Turning to `CCC1(O)CCCN(C(=O)c2ccc(C#Cc3ccc(OC)cc3)cc2)C1` (stereo not given), in test [6], the IC50 was determined as 1.8 µM.
For the compound `C[C@@H]1CN([C@@H](C)CO)C(=O)c2cccc(NC(=O)c3ccncc3)c2O[C@H]1CN(C)Cc1ccc(Cl)cc1`, the concentration at half-maximal activity (AC50) in test [7] was 0.0633 µM (active). Besides, the half-maximal inhibitory concentration (IC50) in test [8] is 0.02 µM (active).
As a reminder, the EC50 is the concentration giving half of the maximal effect. `COC(=O)CSc1nc(N)c(C#N)c(-c2ccc(O)cc2)c1C#N`: in test [9], the EC50 is > 29.9 µM (inactive). Besides, in [10], the IC50 is > 29.9 µM (inactive).
For the compound `COc1ccc(S(=O)(=O)N2CCCCN3[C@H](CO)[C@H](c4ccc(C#CC(C)C)cc4)[C@H]3C2)cc1`, the AC50 in test [11] is 40.7 µM (active); in [12] it was 36.8 µM (active); in test [13], 65.5 µM (active); in [14] it was 10.4 µM (active).
For `COC(=O)c1cc(-c2ccccc2)cnc1N1CCC(NC2CCCCC2)CC1`, in [15], the IC50 is 6.2 µM (active).
